From patent US5750782A, “Nitroaniline derivatives and their use as anti-tumour agents” (priority 1996, dated 1998)

Legend:
AA8 = assay: Growth inhibition (IC50), AA8 cells, aerobic; type: cell-based; conditions: 18 h exposure
Experimental: (§1) Growth inhibition studies were performed as described in detail elsewhere (W.R. Wilson, R.F. Anderson and W.A Denny. J Med. Chem., 1989, 32, 23; G.J. Finlay, B.C. Baguley and W.R. Wilson. Anal Biochem., 1984, 139, 172.), using 200 viable AA8 or 300 viable UV4 cells plus 5000 lethally-irradiated AA8 feeder cells per well in 96-well tissue culture dishes. AA8 and UV4 cells were maintained in logarithmic-phase growth in […] tissue culture flasks with subculture twice weekly by trypsinization. The growth medium was antibiotic-free α-MEM with 10% v/v heat-inactivated ([…], 40 min) fetal calf serum. Doubling times were approximately 14h for AA8 and 15h for UV4 cells.

UV4 = assay: Growth inhibition (IC50), UV4 cells, aerobic; type: cell-based; conditions: air, 18 h exposure
Experimental: as §1

AA8 and UV4 cell lines = assay: Ratio of IC50 values against AA8 and UV4 cell lines (HFair); type: cell-based; conditions: 18 h exposure
Experimental: as §1
Ratio of IC50 values for a compound after exposure as detailed above against AA8 and UV4 cell lines (HF=IC50 (AA8)/IC50 (UV4)).

UV4 cells = assay: Clonogenic assay, UV4 cells (CT10), aerobic and hypoxic; type: cell-based; conditions: for CT10 ratio (air/N2): UV4 cells, aerobic CT10/hypoxic CT10; for CT10 (UV4): air, concentration x time to reduce UV4 cell survival to 10% of control
Source text: The product (in μM-hr) of the drug concentration times the exposure time to reduce cell survival to 10% of control values in the clonogenic assay.
Ratio of CT10 values after exposure of UV4 cells as detailed above under either aerobic (air) or hypoxic (N2) conditions (=aerobic CT10 /hypoxic CT10).

UV4 cell line = assay: Ratio of IC50 values against UV4 cell line in presence and absence of E. coli nitroreductase enzyme NTR-2; type: cell-based; conditions: air, ratio of IC50 in presence and absence of E. coli nitroreductase NTR-2, 1080 min
Experimental: as §1
Ratio of IC50 values for a compound after exposure as detailed above against the UV4 cell line in the presence and absence of the E. coli nitroreductase enzyme NTR-2.

V79 cells = conditions: +Nitroreductase alone (2 μg/ml); 2 h, 37° C
Experimental: The nitroreductase concentration was 2 μg/ml and NADH was used as a co-factor. The initial cell density was 2×10^5 /mL.

| Molecule | IC50 (AA8; air) | IC50 (UV4) | HF (air) = IC50 (AA8)/IC50 (UV4) (AA8 and UV4 cell lines) | CT10 ratio (air/N2) (UV4 cells) | CT10 (UV4) (UV4 cells) | HF (NR-2) (UV4 cell line) | IC50 (AA8; Cricetulus griseus, CHO-AA8, air) | IC50 (UV4; Cricetulus griseus) | % SURVIVAL (V79 cells) |
| --- | --- | --- | --- | --- | --- | --- | --- | --- | --- |
| NC(=O)c1cc(N(CCBr)CCBr)c([N+](=O)[O-])cc1[N+](=O)[O-] [Compound 2, 5-[N,N-bis(2-bromoethyl)amino]-2,4-dinitrobenzamide] | 57 µM | 10.9 µM | 7.5 | 20 | 160 μM-h | 32.3 |  |  |  |
| NC(=O)c1cc(N(CCI)CCI)c([N+](=O)[O-])cc1[N+](=O)[O-] [Compound 3, 5-[N,N-bis(2-iodoethyl)amino]-2,4-dinitrobenzamide] | 34 µM | 15 µM | 2.6 | 42 | 170 μM-h | 73.8 |  |  |  |
| CS(=O)(=O)OCCN(CCOS(C)(=O)=O)c1cc(C(N)=O)c([N+](=O)[O-])cc1[N+](=O)[O-] [Compound 4, 5-[N,N-bis(2-methanesulfonoxyethyl)amino]-2,4-dinitrobenzamide] |  |  |  | 17 | 1200 μM-h | 10.0 | > 200 µM | 99 µM |  |
| O=C(O)c1cc(N(CCCl)CCCl)c([N+](=O)[O-])cc1[N+](=O)[O-] [Compound 6, 5-[N,N-bis(2-chloroethyl)amino]-2,4-dinitrobenzoicacid] | 10600 µM | 317 µM | 1.5 | > 2 | > 30000 μM-h | 0.76 |  |  |  |
| N#Cc1cc(N(CCCl)CCCl)c([N+](=O)[O-])cc1[N+](=O)[O-] [Compound 7, 5-[N,N-bis(2-chloroethyl)aminol]-2,4-dinitrobenzonitrile] | 24 µM | 2.3 µM | 6.8 | 8.5 | 86 μM-h | 9.2 |  |  |  |
| CN(C)C(=O)c1cc(N(CCCl)CCCl)c([N+](=O)[O-])cc1[N+](=O)[O-] [Compound 9, N,N-dimethyl [N,N-bis(2-chloroethyl)amino]-2,4-dinitrobenzainide] | 310 µM |  | 1.4 | > 20 | > 3500 μM-h |  |  |  |  |
| O=C(c1cc(N(CCCl)CCCl)c([N+](=O)[O-])cc1[N+](=O)[O-])N1CCOCC1 [Compound 10, N-morpholino [N,N-bis(2-chloroethyl)amino]-2,4-dinitrobenzamiide] | 264 µM |  | 23 | 1.6 | 156 μM-h |  |  |  |  |
| O=C(NCCN1CCOCC1)c1cc(N(CCCl)CCCl)c([N+](=O)[O-])cc1[N+](=O)[O-] [Compound 12, N-[2-(morpholino)ethyl][N,N-bis(2-chloroethyl)amino]-2,4-dinitrobenzainide] | 920 µM |  | 3.0 | 45 | 3700 μM-h |  |  |  |  |
| NC(=S)c1cc(N(CCCl)CCCl)c([N+](=O)[O-])cc1[N+](=O)[O-] [Compound 13, 5-[N,N-bis(2-chloroethyl)amino]-2,4-dinitrothiobenzamide] | > 25 µM |  | > 2 | > 3 | > 60 μM-h |  |  |  |  |
| C[N+](C)([O-])CCNC(=O)c1cc(N(CCCl)CCCl)c([N+](=O)[O-])cc1[N+](=O)[O-] [Compound 14, N-(N^1,N^1-dimethylaminoethyl) [N,N-bis(2-chloroethyl)amino]-2,4-dinitrobenzamide N^1-oxide] | 7300 µM |  | 1.7 | < 10 | < 14400 μM-h |  |  |  |  |
| O=C(O)CCNC(=O)c1cc(N(CCCl)CCCl)c([N+](=O)[O-])cc1[N+](=O)[O-] [Compound 15, N-(2-carboxyethyl) 5-[N,N-bis(2-chloroethyl)amino]-2,4-dinitrobenzamide] | 6100 µM |  | 1.1 | 2 | 14000 μM-h |  |  |  |  |
| O=C(NCC(O)CO)c1cc(N(CCCl)CCCl)c([N+](=O)[O-])cc1[N+](=O)[O-] (centres unmarked) [Compound 17, N-(2,3-dihydroxypropyl)5-[N,N-bis(2-chloroethyl)amino]-2,4-dinitrobenzarnide] | 1790 µM |  | 3.2 | 14 | 3340 μM-h |  |  |  |  |
| NS(=O)(=O)c1cc(N(CCCl)CCCl)c([N+](=O)[O-])cc1[N+](=O)[O-] [Compound 18, 5-[N,N-bis(2-chloroethyl)amino]-2,4-dinitrobenzenesulfonamide] | 3 µM |  |  |  |  |  |  |  |  |
| NC(=O)c1cc([N+](=O)[O-])cc([N+](=O)[O-])c1N(CCCl)CCCl [Compound 19, 2-[N,N-bis(2-chloroethyl)amino]-3,5-dinitrobenzamide] | > 100 µM |  | ca. 3 | > 5 | > 300 μM-h |  |  |  |  |
| CN(C)CCNC(=O)c1cc([N+](=O)[O-])cc([N+](=O)[O-])c1N(CCCl)CCCl [Compound 20, N-(N,N-dimethylaminoethyl) 2-[N,N-bis(2-chloroethyl)amino]-3,5-dinitrobenzamide] | 150 µM |  | 14 | 36 | 1200 μM-h |  |  |  |  |
| NC(=O)c1c([N+](=O)[O-])ccc(N(CCCl)CCCl)c1[N+](=O)[O-] [Compound 21, 3-[N,N-bis(2-chloroethyl)amino]-2,6-dinitrobenzamide] | > 240 µM |  | > 2 | > 3 | > 300 μM-h |  |  |  |  |
| CN(C)CCNC(=O)c1c([N+](=O)[O-])ccc(N(CCCl)CCCl)c1[N+](=O)[O-] [Compound 22, N-(N,N-dimethylaminoethyl) 3-[N,N-bis(2-chloroethyl)amino]-2,6-dinitrobenzamide] | 426 µM |  | 3.2 | 130 | 3600 μM-h |  |  |  |  |
| NC(=O)c1cc([N+](=O)[O-])c(N(CCCl)CCCl)c([N+](=O)[O-])c1 [Compound 23, 4-[N,N-bis(2-chloroethyl)amino]-3,5-dinitrobenzamide] | 97 µM |  | 1.4 | > 1 | > 450 μM-h |  |  |  |  |
| CN(C)CCNC(=O)c1cc([N+](=O)[O-])c(N(CCCl)CCCl)c([N+](=O)[O-])c1 [Compound 24, N-(N,N-dimethylaminoethyl) 4-[N,N-bis(2-chloroethyl)amino]-3,5-dinitrobenzamide] | 62 µM |  | 2.0 | > 1 | > 273 μM-h |  |  |  |  |
| Nitroreductase: E. coli nitroreductase (protein, UniProt P38489 1-217, looked up) Oxygen-insensitive NAD(P)H …: MDIISVALKRHSTKAFDASKKLTPEQAEQIKTLLQYSPSSTNSQPWHFIVASTEEGKARVAKSAAGNYVFNERKMLDASHVVVFCAKTAMDDVWLKLVVDQEDADGRFATPEAKAANDKGRKFFADMHRKDLHDDAEWMAKQVYLNVGNFLLGVAALGLDAVPIEGFDAAILDAEFGLKEKGYTSLVVVPVGHHSVEDFNATLPKSRLPQNITLTEV |  |  |  |  |  |  |  |  | 94% |
